From PubChem BioAssay AID1648 (Sanford-Burnham Center for Chemical Genomics, 2009)
Active and inactive are the calls of the source. No rule for the calls is given here.

target: Serine/threonine-protein kinase mTOR (Homo sapiens) (UniProt P42345); test: mTOR FRB domain ligand binding – biophysical, NMR (AID 1648); settings: NMR binding to FRB domain, chemical shift
Sequence (P42345 2015-2114): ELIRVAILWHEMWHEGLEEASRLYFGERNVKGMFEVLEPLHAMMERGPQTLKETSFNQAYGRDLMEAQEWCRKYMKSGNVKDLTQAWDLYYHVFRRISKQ

SMILES	Kd
CC(=O)N1CCN(c2ccc(N)cc2)CC1	> 4 mM (inactive)
CCC(=O)NC(=S)Nc1ccc(O)cc1	> 4 mM (inactive)
NCCC(=O)N[C@@H](Cc1cnc[nH]1)C(=O)O	> 4 mM (inactive)
CS(=O)(=O)NC1CCN(Cc2ccccc2)CC1	> 4 mM (inactive)
COc1cccc(-c2cc(=O)c3cc(OC)ccc3o2)c1	> 4 mM (inactive)
O=c1/c(=C\c2cccnc2)sc2nc3ccccc3n12	> 4 mM (inactive)
COC(=O)Nc1nc2c(s1)CCCC2	> 4 mM (inactive)
CC1(C)C2C[C@@H](O)[C@]3(C)C(CC[C@@]4(C)[C@H](c5ccoc5)OC(=O)[C@H]5O[C@]543)[C@@]2(C)[C@@H](O)C[C@H]1O (stereo partly drawn)	> 4 mM (inactive)
CC(=O)Nc1ccc(-c2nc(C)c(C(C)=O)n2O)cc1	> 4 mM (inactive)
CS(=O)(=O)NN=C1CCCCC1	> 4 mM (inactive)
Cc1cc(C)nc(/N=C(\N)N2CCc3ccccc32)n1	> 4 mM (inactive)
CCCCCCCCCCCC[C@H](C(=O)O)[C@@H](C)C(=O)O	> 4 mM (inactive)
OCc1ccc2ncccc2c1	> 4 mM (inactive)
O=C(C1CCNCC1)N1CCCCCC1	> 4 mM (inactive)
CCN1CCN(CCCNc2ncnc3nc[nH]c23)CC1	> 4 mM (inactive)
OC1CC(c2ccccc2)NC2(CCCC2)C1 (stereo not drawn)	> 4 mM (inactive)
Cc1nc(N)sc1C(=O)N/N=C/c1ccncc1	> 4 mM (inactive)
O=C1CCC(C(=O)NCc2ccc(Cl)cc2)N1 (stereo not drawn)	> 4 mM (inactive)
COc1cc2c(cc1OC)[C@@H]1C(=O)c3ccc(O)c(CC=C(C)C)c3O[C@@H]1CO2	> 4 mM (inactive)
O=C(c1nc2ncccn2n1)N1CCc2ccccc2C1	> 4 mM (inactive)
CN(C)Cc1nc2c([nH]1)c(=O)[nH]c(=O)n2C	> 4 mM (inactive)
CC(C)(C)CC(=O)NNC(=O)c1cnccn1	> 4 mM (inactive)
Oc1ccc(-n2ccnc2)cc1	> 4 mM (inactive)

SMILES	Kd
c1ccc(-c2noc(-c3ccco3)n2)nc1	> 4 mM (inactive)
CN1CCN(C(=O)c2ccco2)CC1	> 4 mM (inactive)
COC[C@]12CN(C=O)C3[C@@H]4[C@H](OC)C1[C@]3(C1CC3(O)C(OC)C(O)C4(OC(C)=O)C1C3OC(=O)c1ccccc1)[C@@H](OC)C[C@H]2O (stereo partly drawn)	> 4 mM (inactive)
COc1ccccc1-c1cn[nH]c(=S)n1	> 4 mM (inactive)
CC(=O)NC(=S)Nc1ccccc1C(N)=O	> 4 mM (inactive)
Cc1onc(-c2c(Cl)cccc2Cl)c1C(N)=O	> 4 mM (inactive)
O=C1NC(=O)C(=Cc2cccs2)C(=O)N1	> 4 mM (inactive)
O=C(Nc1ccc(Cl)cn1)c1cnn2cccnc12	> 4 mM (inactive)
O=C1CCN(c2ccccc2)N1	> 4 mM (inactive)
Cc1cc(C(=O)O)n[nH]1	> 4 mM (inactive)
COc1ccccc1Nc1nncc(=O)[nH]1	> 4 mM (inactive)
c1cncc(-c2nnc(-c3cccnc3)nn2)c1	> 4 mM (inactive)
OCc1ccc2nonc2c1	> 4 mM (inactive)
CC(C)(C)Cc1nc(-c2ccccn2)no1	> 4 mM (inactive)
CC(=O)Oc1ccc(/C=C/c2cc(OC(C)=O)cc(OC(C)=O)c2)cc1	> 4 mM (inactive)
COc1cc2cc3c4cc(OC)c(OC)cc4cc[n+]3c(C)c2cc1OC	> 4 mM (inactive)
Cc1onc(-c2ccc(F)cc2)c1C(=O)O	> 4 mM (inactive)
Oc1cc(O)c2c(c1)O[C@H](c1cc(O)c(O)c(O)c1)[C@H](O)C2	> 4 mM (inactive)
CSc1nc(NC(C)(C)C)nc(N2CCOCC2)n1	> 4 mM (inactive)
Nc1ncnc(Cl)c1[N+](=O)[O-]	> 4 mM (inactive)
NC(=O)CSCc1c(Cl)cccc1Cl	> 4 mM (inactive)
O=C(O)C(O)C(O)C(O)C(O)C(=O)O (stereo not drawn)	> 4 mM (inactive)
Cn1c(=O)n(C)c2nc([N+](=O)[O-])c(Cl)cc21	> 4 mM (inactive)

SMILES	Kd
CCOC(=O)Cc1nc2ccccc2[nH]1	> 4 mM (inactive)
COCCn1c(SC)nc2c1c(=O)[nH]c(=O)n2C	> 4 mM (inactive)
O=C1CCCc2c(O)cccc21	> 4 mM (inactive)
CCn1c(-c2ccccc2)n[nH]c1=S	> 4 mM (inactive)
O=c1c2ccccc2ncn1C1CCCCC1	> 4 mM (inactive)
CC(=O)Nc1ccc2c(c1)n(C)c(=O)n2C	> 4 mM (inactive)
OCc1ncoc1-c1ccccc1	> 4 mM (inactive)
Cc1c(C(=O)OC(C)C)[nH]c2c1C(=O)CCC2	> 4 mM (inactive)
CN1CCN(c2ncnc3nc[nH]c23)CC1	> 4 mM (inactive)
O=C1CC(c2ccccc2)n2ncnc2N1 (stereo not drawn)	> 4 mM (inactive)
O=C(CSc1ncccn1)NCc1ccco1	> 4 mM (inactive)
O=C(O)Cn1cc(C(F)(F)F)ccc1=O	> 4 mM (inactive)
O=S(=O)(Cc1ccc(Cl)cc1)N1CCCC1	> 4 mM (inactive)
COc1cc(C(=S)N2CCCC2)cc(Cl)c1O	> 4 mM (inactive)
Cc1ccc(CCNc2ccccc2)c[n+]1[O-]	> 4 mM (inactive)
Cc1cccc(CO)n1	> 4 mM (inactive)
Cc1cc(C)n(-c2nncn2N)n1	> 4 mM (inactive)
NC(=S)N1CCC(c2ccccc2)=N1	> 4 mM (inactive)
CC(=O)c1c(C)nc2ccccc2c1N	> 4 mM (inactive)
CC(=O)Nc1nc2c(s1)C(=O)NCCC2	> 4 mM (inactive)
CCOC(=O)c1c(C)cc(O)c(C)c1O	> 4 mM (inactive)
Cc1ccc2cc(N)ccc2n1	> 4 mM (inactive)
Cc1ccccc1NC(=O)CC1NCCNC1=O (stereo not drawn)	> 4 mM (inactive)

SMILES	Kd
C/C=C(\C)C(=O)OC1[C@@H]2C=C3C(CC[C@]4(C)C3CC(=O)O[C@H]4c3ccoc3)C(C)(C2=O)[C@@H](C(O)C(=O)OC)C1(C)C (stereo partly drawn)	> 4 mM (inactive)
C[C@@H]1O[C@@H](O[C@H]2CC[C@]3(C=O)C4CC[C@]5(C)[C@@H](C6=CC(=O)OC6)CC[C@]5(O)C4CC[C@]3(O)C2)[C@H](O)[C@H](O)[C@H]1O (stereo partly drawn)	> 4 mM (inactive)
Cc1cc(=O)n2ccc(CN3CCOCC3)c(O)c2n1	> 4 mM (inactive)
CCCCCCCCCCCCCCC(C(=O)OC)C(O)(CC(=O)OC)C(=O)OC (stereo not drawn)	> 4 mM (inactive)
COc1ccc(C2CC(=O)c3ccc(OC)cc3O2)cc1 (stereo not drawn)	> 4 mM (inactive)
OCC1CCCCCN1 (stereo not drawn)	> 4 mM (inactive)
Cc1ccc(-n2ncc(C#N)c2/N=C/N(C)C)cc1	> 4 mM (inactive)
O=C(O)CCC1NCC2CC1CN1CCCCC21 (stereo not drawn)	> 4 mM (inactive)
COc1ccc2c(c1)O[C@@H]1COc3cc(OC)c(OC)cc3[C@@H]1C2=O	> 4 mM (inactive)
COC(=O)c1ccccc1NC(=O)c1cc[n+]([O-])cc1	> 4 mM (inactive)
CCN(CC)S(=O)(=O)c1ccc(F)cc1	> 4 mM (inactive)
CCOc1cc(S(=O)(=O)N2CCOCC2)ccc1F	> 4 mM (inactive)
CCc1ccccc1NC(=O)c1ccoc1C	> 4 mM (inactive)
CC(=O)c1ccc(NC(=S)N2CCC(O)CC2)cc1	> 4 mM (inactive)
CC(=O)O[C@H]1C[C@@H](OC(C)=O)C(C)(C)C2C[C@@H](OC(C)=O)[C@]3(C)C(CC[C@@]4(C)[C@H](c5ccoc5)C(=O)[C@H]5O[C@]543)[C@]21C (stereo partly drawn)	> 4 mM (inactive)
COc1ccc(Cl)cc1NC(=O)c1ccco1	> 4 mM (inactive)
COCC(=O)OCn1nnc2ccccc2c1=O	> 4 mM (inactive)
Cc1nn(CC(=O)Nc2ccccc2)c(=O)c2ccccc12	> 4 mM (inactive)
CC(=O)/C=C\[C@@H]1[C@@]2(C)CCCC(C)(C)C2CC[C@@]1(C)O (stereo partly drawn)	> 4 mM (inactive)
O=C(O)CSCC(=O)Nc1cccc(O)c1	> 4 mM (inactive)
Nc1ccc2c(c1)CCC2=O	> 4 mM (inactive)
Nc1ncnc(NCCOCCO)c1[N+](=O)[O-]	> 4 mM (inactive)
O=C(O)c1ccc(-n2cccn2)cc1	> 4 mM (inactive)

SMILES	Kd
CC(C)(C)P(=O)(O)c1ccccc1	> 4 mM (inactive)
O=C1CCC(=O)N1c1cccc([N+](=O)[O-])c1	> 4 mM (inactive)
COc1ccccc1NS(=O)(=O)c1c[nH]c(=O)[nH]c1=O	> 4 mM (inactive)
Cn1nnc2cc(CO)ccc21	> 4 mM (inactive)
CCOC(=O)c1c(C)nc2ccccn12	> 4 mM (inactive)
C[C@@H]1CC[C@@]2(OC1)OC1C(O)C3C4CC[C@H]5C[C@H](O[C@@H]6O[C@H](CO)[C@H](O[C@@H]7O[C@H](CO)[C@@H](O)[C@H](O[C@@H]8OC[C@@H](O)[C@H](O)[C@H]8O)[C@H]7O[C@@H]7O[C@H](CO)[C@H](O)[C@H](O[C@@H]8O[C@H](CO)[C@@H](O)[C@H](O)[C@H]8O)[C@H]7O)[C@H](O)[C@H]6O)[C@H](O)C[C@]5(C)C4CC[C@]3(C)C1[C@@H]2C (stereo partly drawn)	> 4 mM (inactive)
C/C(O)=c1/sc2cc(C)nc(=N)n2c1=O	> 4 mM (inactive)
O=C(O)c1ccc(-n2cccc2)cc1	> 4 mM (inactive)
COc1c2c(cc3c1OCO3)CCN(C)C2	> 4 mM (inactive)
Nc1cc(-c2ccco2)[nH]n1	> 4 mM (inactive)
COC(=O)/C(C)=C\CC12OC(C)(C)C3CC(C=C4C(=O)c5c(OC)c6c(c(CC=C(C)C)c5OC431)OC(C)(CCC=C(C)C)C=C6)C2=O (stereo not drawn)	> 4 mM (inactive)
CCCCn1c(S(=O)(=O)O)nc2ccccc21	> 4 mM (inactive)
Oc1cc(O)c2c(c1)O[C@H](c1ccc(O)c(O)c1)[C@@H](O)C2	> 4 mM (inactive)
NC(=O)c1ccc(SCC(=O)O)c([N+](=O)[O-])c1	> 4 mM (inactive)
O=C(O)C1CSC(c2ccccc2)N1 (stereo not drawn)	> 4 mM (inactive)
O=C1NC(=O)/C(=C\c2ccco2)S1	> 4 mM (inactive)
O=C(Nc1ccccn1)C(=O)N1CCCC1	> 4 mM (inactive)
COc1ccccc1C(=O)NC1CCN(C)CC1	> 4 mM (inactive)
OC1CCNC2CCCCC12 (stereo not drawn)	> 4 mM (inactive)
COc1ccc(-c2ccc(=O)n(CC(N)=O)n2)cc1	> 4 mM (inactive)
Cc1sc2nc(-c3ccco3)oc(=O)c2c1C	> 4 mM (inactive)
